From paper PMC1636466 (Nucleic Acids Research, 2006)

Target: Vent(exo-) DNA polymerase (Thermococcus litoralis, UniProt P30317, D141A/E143A)
Settings: natural primer/template PA/T0, 40 °C, supplied reaction buffer, dATP 10–800 μM

Km: 5.52 µM
Compound: Nc1ncnc2c1ncn2[C@H]1C[C@H](O)[C@@H](COP(=O)(O)OP(=O)(O)OP(=O)(O)O)O1 [dATP]
